In PubChem BioAssay (NCI) one finds TGI and GI50 data, which are given here for 16 compounds.

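Protocol summary: plate cells (96-well), add compound at 5 concentrations, incubate 48 h, interpolate endpoints linearly. GI50 is the concentration that inhibits growth by half. At the TGI there is no net growth.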 Where only a bound is given, the exact number is not on record here.

Some test systems named below: U251 CNS; HT29 colon; UACC-257 melanoma; HCC-2998 colon; TK-10 renal; ACHN renal; MCF7 breast; OVCAR-4 ovarian; OVCAR-3 ovarian.
What all share (experiment): NCI tumour cell line growth inhibition, 48 h

Consider `CCCCCCCCc1cc2c(O)c(c1)Cc1cc(CCCCCCCC)cc(c1O)Cc1cc(CCCCCCCC)cc(c1O)Cc1cc(CCCCCCCC)cc(c1O)Cc1cc(CCCCCCCC)cc(c1O)Cc1cc(CCCCCCCC)cc(c1O)C2`, for which the TGI with U251 CNS, with HT29 colon, in the assay on UACC-257 melanoma, with HCC-2998 colon, in the assay on TK-10 renal and in the assay with ACHN renal was > 100 µM in each case.
As for `O=[N+]([O-])c1cccnc1N=Nc1c(O)[nH]c2ccccc12`, the TGI with U251 CNS was > 100 µM; in the assay on HT29 colon, 26 µM; with MCF7 breast, 20.6 µM; in the assay on UACC-257 melanoma it was 44.6 µM; with OVCAR-4 ovarian, 73 µM; in the assay with TK-10 renal, 40.8 µM. In addition, the figures for the TGI in the assay on ACHN renal and in the assay with OVCAR-3 ovarian were 36 µM and > 100 µM, respectively.
With `C[N+](C)(C)CC(=O)N/N=C(/Cc1cc(=O)oc2cc(O)ccc12)C(=O)Nc1ccc(Cl)cc1`, the TGI with HT29 colon, in the assay with UACC-257 melanoma, in the assay with OVCAR-4 ovarian, in the assay on HCC-2998 colon, in the assay on TK-10 renal and with ACHN renal was > 100 µM throughout. For the same compound, the TGI in the assay on OVCAR-3 ovarian is > 100 µM.
As to `Cc1cc2c(cc1C)[n+](=O)cc(C(=O)C/C(=N/NC(=S)NN)C(=O)Nc1cccc(C(F)(F)F)c1)n2[O-]`, the TGI with U251 CNS, with HT29 colon, in the assay with UACC-257 melanoma, in the assay with OVCAR-4 ovarian, in the assay on HCC-2998 colon and in the assay with TK-10 renal was > 100 µM in each case. In addition, the TGI with ACHN renal and with OVCAR-3 ovarian was > 100 µM in each case.
Regarding `COc1ccc(-c2c(C#N)c(N3CCOCC3)nc3[nH]c(=S)[nH]c(=S)c23)cc1OC`, the GI50 is 46.5 µM in the assay with U251 CNS; 29.4 µM in the assay with MCF7 breast; > 100 µM in the assay on UACC-257 melanoma; 76.6 µM in the assay on OVCAR-4 ovarian; 36 µM with HCC-2998 colon; 34.5 µM in the assay with TK-10 renal. Also, the values for the GI50 with ACHN renal and with OVCAR-3 ovarian were 35.8 µM and 34.6 µM, respectively. Also, the TGI in the assay with U251 CNS, in the assay on MCF7 breast, in the assay on UACC-257 melanoma, in the assay on OVCAR-4 ovarian, in the assay on HCC-2998 colon and in the assay with TK-10 renal was > 100 µM throughout. Further, the TGI in the assay on ACHN renal and with OVCAR-3 ovarian was > 100 µM each time.
As for `O=C1C/C(Br)=C\c2ccccc2-c2ccccc21`, the TGI in the assay with U251 CNS is 6.83 µM; with HT29 colon, 4.72 µM; in the assay on UACC-257 melanoma it was 14.5 µM; in the assay with OVCAR-4 ovarian, 7.88 µM; with HCC-2998 colon it was 19.3 µM; in the assay on TK-10 renal, 14.5 µM. Moreover, the values for the TGI with ACHN renal and with OVCAR-3 ovarian were 4.5 µM and 7.52 µM, respectively.
As to `O=C1C=C(c2c(O)ccc3ccccc23)c2cc(O)ccc2C1=O`, the TGI in the assay on U251 CNS was 28.4 µM; with HT29 colon, 47.9 µM; with UACC-257 melanoma it was 33.1 µM; in the assay on OVCAR-4 ovarian, 26.1 µM; in the assay on HCC-2998 colon it was 33.6 µM; with TK-10 renal, 35.4 µM. Further, the TGI in the assay on ACHN renal is 31.5 µM; in the assay on OVCAR-3 ovarian, 22.5 µM.
In the case of `CC(=O)N/C(=C\c1ccccc1/C=C(\NC(C)=O)c1nc2cc(C)c(C)cc2[nH]1)c1nc2cc(C)c(C)cc2[nH]1`, the TGI in the assay on U251 CNS was > 100 µM; in the assay on HT29 colon, > 100 µM; with TK-10 renal it was > 100 µM; with ACHN renal it was 28.4 µM; in the assay on OVCAR-3 ovarian it was 35.7 µM.
For the compound `O=Cc1cc2c(cc1-c1cc3c(cc1C=O)OCO3)OCO2`, the TGI in the assay with U251 CNS, with HT29 colon, with UACC-257 melanoma, in the assay with OVCAR-4 ovarian, in the assay with HCC-2998 colon and in the assay on TK-10 renal was > 100 µM throughout. Further, the TGI with ACHN renal and in the assay with OVCAR-3 ovarian was > 100 µM in each case.
As to `CC[C@@H]1NC(C(=O)OC)Cc2c1[nH]c1ccccc21` (stereo partly drawn), the TGI with U251 CNS, in the assay with HT29 colon, with UACC-257 melanoma, with OVCAR-4 ovarian, in the assay with HCC-2998 colon and with TK-10 renal was > 100 µM throughout. The TGI in the assay on ACHN renal and in the assay on OVCAR-3 ovarian was > 100 µM each time.
For the compound `CCOC(=O)Cc1csc(Nc2ccccc2[N+](=O)[O-])n1`, the TGI with U251 CNS, in the assay with HT29 colon, in the assay on UACC-257 melanoma, in the assay on OVCAR-4 ovarian, in the assay with HCC-2998 colon and in the assay with TK-10 renal was > 100 µM in each case. The TGI in the assay with ACHN renal and with OVCAR-3 ovarian was > 100 µM throughout.
`Cc1nc2c(N)ncnc2o1`: the TGI in the assay with U251 CNS, in the assay with HT29 colon, in the assay with UACC-257 melanoma, in the assay on OVCAR-4 ovarian, in the assay with HCC-2998 colon and in the assay with TK-10 renal was > 100 µM in each case. For the same compound, the TGI in the assay on ACHN renal and with OVCAR-3 ovarian was > 100 µM throughout.
Consider `CC1=C(C(=O)Nc2ccccc2)C(c2ccc(Cl)c(Cl)c2)C(C(=O)Nc2ccccc2)=C(C)N1`, for which the TGI with U251 CNS is 27.6 µM; in the assay on HT29 colon it was 24.6 µM; in the assay with UACC-257 melanoma, 26.5 µM; in the assay on OVCAR-4 ovarian, 27.7 µM; with TK-10 renal it was 75.2 µM; in the assay with ACHN renal, 24.9 µM. Further, the TGI with OVCAR-3 ovarian was found to be 25.3 µM.
For the compound `O=C1c2cccc3cccc(c23)C(=O)N1CCN(CCO)CCO`, the TGI is > 100 µM in the assay with U251 CNS; 76.1 µM in the assay with HT29 colon; 54 µM in the assay on UACC-257 melanoma; 66 µM with OVCAR-4 ovarian; 84.9 µM in the assay on HCC-2998 colon; 62.3 µM in the assay with TK-10 renal. Further, the TGI in the assay on ACHN renal was 67.5 µM; in the assay on OVCAR-3 ovarian it was > 100 µM.
As to `CCCCCCCCCCCC[N+]12CC[N+](CCN)(CC1)CC2`, the TGI is > 100 µM in the assay on U251 CNS; > 100 µM in the assay on HT29 colon; > 100 µM in the assay with UACC-257 melanoma; > 100 µM in the assay on OVCAR-4 ovarian; > 100 µM in the assay on HCC-2998 colon; 39.7 µM in the assay with TK-10 renal. The TGI in the assay with ACHN renal and with OVCAR-3 ovarian was > 100 µM in each case.
As for `c1ccc2c(c1)CCc1c(-c3ccncc3)n[nH]c1-2`, the TGI was 57.8 µM in the assay on U251 CNS; > 100 µM with HT29 colon; 57.7 µM in the assay on UACC-257 melanoma; 94.2 µM in the assay with HCC-2998 colon; > 100 µM in the assay with TK-10 renal; > 100 µM in the assay with ACHN renal. The compound also yielded a TGI with OVCAR-3 ovarian of 33.3 µM.
